According to PMC9100109, “UnbiasedDTI: Mitigating Real-World Bias of Drug-Target Interaction Prediction by Using Deep Ensemble-Balanced Learning” (Molecules, 2022):

These molecules were tested against T1, ACE2: SARS-CoV-2 Spike complex (UniProt P0DTC2+Q9BYF1) (assay: biochemical).
T1 construct: BPS Bioscience Cat: 79936; inferred from capture on a nickel-coated plate; inferred from detection with anti-mouse Fc-HRP; purchased BPS Bioscience 79936
Assay type: binding, human ACE2 / SARS-CoV-2 spike

| SMILES | Lab Results | activity against the complex of the spike protein and ACE2 | IC50 [nM] |
| --- | --- | --- | --- |
| N.O=C(O)C(=O)C[C@@H](O)[C@@H](O)[C@H](O)[C@H](O)CO [2-keto-3-deoxyoctonate ammonium salt, 2-Keto-3-deoxyoctonate ammonium salt] | P (key: P: positive (interacting); N: negative (non-interacting)) | – | – |
| OC[C@H]1O[C@H](OC[C@H]2O[C@H](OC[C@H]3OC(O)[C@@H](O)[C@@H](O[C@H]4O[C@H](CO)[C@@H](O)[C@H](O)[C@@H]4O)[C@@H]3O)[C@@H](O)[C@@H](O[C@H]3O[C@H](CO)[C@@H](O)[C@H](O)[C@@H]3O)[C@@H]2O)[C@@H](O)[C@@H](O)[C@@H]1O (stereo partly drawn) [3 α ,6 α -Mannopentaose] | N (key: P: positive (interacting); N: negative (non-interacting)) | inactive | – |
| CC(=O)N[C@H]1C(O)O[C@H](CO)[C@@H](O[C@@H]2O[C@H](CO)[C@H](O)[C@H](O)[C@H]2O)[C@@H]1O (stereo partly shown) [N-Acetyllactosamine] | P (key: P: positive (interacting); N: negative (non-interacting)) | – | – |
| O=C(CO)N[C@H]1[C@H]([C@H](O)[C@H](O)CO)O[C@](O)(C(=O)O)C[C@@H]1O [N-Glycolylneuraminic, N-glycolylneuraminic acid] | P (key: P: positive (interacting); N: negative (non-interacting)) | – | – |
| CC(=O)N[C@H]1[C@H]([C@H](O)[C@H](O)CO)OC(O)(C(=O)O)C[C@@H]1O (stereo partly shown) [N-acetyl-neuraminic, N-acetyl-neuraminic acid] | P (key: P: positive (interacting); N: negative (non-interacting)) | – | 19 |
| CC(=O)N[C@H]1[C@H]([C@H](O)[C@H](O)CO)O[C@](OP(=O)([O-])OC[C@H]2O[C@@H](n3ccc(N)nc3=O)[C@H](O)[C@@H]2O)(C(=O)O)C[C@@H]1O.[Na+] [cytidine-5-monophospho-N-acetylneuraminic acid sodium salt] | P (key: P: positive (interacting); N: negative (non-interacting)) | – | – |
| CC(C)CN(C[C@@H](O)[C@H](Cc1ccccc1)NC(=O)O[C@H]1CO[C@H]2OCC[C@H]21)S(=O)(=O)c1ccc(N)cc1 [darunavir, Darunavir, reference compound] | P (key: P: positive (interacting); N: negative (non-interacting)) | – | 5.5 |
